Results: US20150087627A1, “COMBINATION OF KINASE INHIBITORS AND USES THEREOF” (Intellikine LLC, priority 2011, published 2015)

What was measured:
Assay type in all cases: biochemical
[1] = target: T1, PI3K β (p110β/p85α) (Homo sapiens, UniProt P42338); test: PI 3-Kinase (human) HTRF assay, PI3K β; conditions: read-out: PI3K β IC50
T1 construct: purchased Upstate / Millipore Corporation

[2] = target: T2, PI3K α (p110α/p85α) (Homo sapiens, UniProt P42336); test: PI 3-Kinase (human) HTRF assay, PI3K α; conditions: read-out: PI3K α IC50
T2 construct: purchased Upstate / Millipore Corporation
T2 sequence (P42336 whole entry): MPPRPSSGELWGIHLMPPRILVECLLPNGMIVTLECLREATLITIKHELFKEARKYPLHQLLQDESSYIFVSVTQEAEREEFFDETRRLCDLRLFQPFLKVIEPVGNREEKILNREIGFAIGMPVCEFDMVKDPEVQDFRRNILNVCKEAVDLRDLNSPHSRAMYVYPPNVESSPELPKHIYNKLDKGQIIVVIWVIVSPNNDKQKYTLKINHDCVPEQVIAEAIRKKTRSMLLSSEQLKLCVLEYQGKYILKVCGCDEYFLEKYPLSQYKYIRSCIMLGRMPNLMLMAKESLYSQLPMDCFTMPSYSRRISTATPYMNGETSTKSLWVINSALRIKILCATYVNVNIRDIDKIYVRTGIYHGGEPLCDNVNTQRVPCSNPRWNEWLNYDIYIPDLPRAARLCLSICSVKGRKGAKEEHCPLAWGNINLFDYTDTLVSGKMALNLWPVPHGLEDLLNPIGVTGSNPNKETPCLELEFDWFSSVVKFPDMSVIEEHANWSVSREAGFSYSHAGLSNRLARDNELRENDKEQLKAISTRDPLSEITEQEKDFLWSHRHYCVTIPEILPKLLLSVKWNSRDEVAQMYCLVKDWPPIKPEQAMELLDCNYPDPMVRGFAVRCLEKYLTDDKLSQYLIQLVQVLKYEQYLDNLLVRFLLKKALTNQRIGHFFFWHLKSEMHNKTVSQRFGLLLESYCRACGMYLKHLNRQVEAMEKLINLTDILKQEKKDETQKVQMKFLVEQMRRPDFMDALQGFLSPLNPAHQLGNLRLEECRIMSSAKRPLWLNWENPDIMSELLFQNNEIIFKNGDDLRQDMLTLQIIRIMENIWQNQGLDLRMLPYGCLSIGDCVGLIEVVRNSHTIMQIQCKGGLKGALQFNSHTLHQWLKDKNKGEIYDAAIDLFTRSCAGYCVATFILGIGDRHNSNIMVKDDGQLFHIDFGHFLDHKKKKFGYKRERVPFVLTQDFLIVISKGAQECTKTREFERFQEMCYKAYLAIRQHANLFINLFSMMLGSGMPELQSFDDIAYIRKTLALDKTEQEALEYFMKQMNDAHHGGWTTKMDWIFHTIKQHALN
T2 sequence (P27986 whole entry partner): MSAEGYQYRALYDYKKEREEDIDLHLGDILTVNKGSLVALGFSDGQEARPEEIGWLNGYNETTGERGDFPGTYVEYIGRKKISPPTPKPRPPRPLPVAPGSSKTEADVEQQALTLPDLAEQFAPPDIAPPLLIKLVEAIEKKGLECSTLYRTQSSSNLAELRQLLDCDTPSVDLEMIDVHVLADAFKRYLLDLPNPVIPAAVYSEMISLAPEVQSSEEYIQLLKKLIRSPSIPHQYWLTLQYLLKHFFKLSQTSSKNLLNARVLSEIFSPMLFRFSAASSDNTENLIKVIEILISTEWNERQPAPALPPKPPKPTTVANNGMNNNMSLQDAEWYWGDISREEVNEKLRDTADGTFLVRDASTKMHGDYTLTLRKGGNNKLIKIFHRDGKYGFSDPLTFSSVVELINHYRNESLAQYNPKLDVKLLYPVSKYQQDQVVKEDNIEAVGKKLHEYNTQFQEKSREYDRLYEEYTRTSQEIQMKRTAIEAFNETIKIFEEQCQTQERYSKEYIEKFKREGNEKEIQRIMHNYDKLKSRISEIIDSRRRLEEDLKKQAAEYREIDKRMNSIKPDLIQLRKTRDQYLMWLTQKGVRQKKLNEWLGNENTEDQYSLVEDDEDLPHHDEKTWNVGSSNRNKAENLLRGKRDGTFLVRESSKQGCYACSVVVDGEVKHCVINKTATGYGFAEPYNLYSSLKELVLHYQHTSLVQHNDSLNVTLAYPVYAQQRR

[3] = target: T3, PI3K γ (p110γ) (Homo sapiens, UniProt P48736); test: PI 3-Kinase (human) HTRF assay, PI3K γ; conditions: read-out: PI3K γ IC50
T3 construct: purchased Upstate / Millipore Corporation
T3 sequence (P48736 whole entry): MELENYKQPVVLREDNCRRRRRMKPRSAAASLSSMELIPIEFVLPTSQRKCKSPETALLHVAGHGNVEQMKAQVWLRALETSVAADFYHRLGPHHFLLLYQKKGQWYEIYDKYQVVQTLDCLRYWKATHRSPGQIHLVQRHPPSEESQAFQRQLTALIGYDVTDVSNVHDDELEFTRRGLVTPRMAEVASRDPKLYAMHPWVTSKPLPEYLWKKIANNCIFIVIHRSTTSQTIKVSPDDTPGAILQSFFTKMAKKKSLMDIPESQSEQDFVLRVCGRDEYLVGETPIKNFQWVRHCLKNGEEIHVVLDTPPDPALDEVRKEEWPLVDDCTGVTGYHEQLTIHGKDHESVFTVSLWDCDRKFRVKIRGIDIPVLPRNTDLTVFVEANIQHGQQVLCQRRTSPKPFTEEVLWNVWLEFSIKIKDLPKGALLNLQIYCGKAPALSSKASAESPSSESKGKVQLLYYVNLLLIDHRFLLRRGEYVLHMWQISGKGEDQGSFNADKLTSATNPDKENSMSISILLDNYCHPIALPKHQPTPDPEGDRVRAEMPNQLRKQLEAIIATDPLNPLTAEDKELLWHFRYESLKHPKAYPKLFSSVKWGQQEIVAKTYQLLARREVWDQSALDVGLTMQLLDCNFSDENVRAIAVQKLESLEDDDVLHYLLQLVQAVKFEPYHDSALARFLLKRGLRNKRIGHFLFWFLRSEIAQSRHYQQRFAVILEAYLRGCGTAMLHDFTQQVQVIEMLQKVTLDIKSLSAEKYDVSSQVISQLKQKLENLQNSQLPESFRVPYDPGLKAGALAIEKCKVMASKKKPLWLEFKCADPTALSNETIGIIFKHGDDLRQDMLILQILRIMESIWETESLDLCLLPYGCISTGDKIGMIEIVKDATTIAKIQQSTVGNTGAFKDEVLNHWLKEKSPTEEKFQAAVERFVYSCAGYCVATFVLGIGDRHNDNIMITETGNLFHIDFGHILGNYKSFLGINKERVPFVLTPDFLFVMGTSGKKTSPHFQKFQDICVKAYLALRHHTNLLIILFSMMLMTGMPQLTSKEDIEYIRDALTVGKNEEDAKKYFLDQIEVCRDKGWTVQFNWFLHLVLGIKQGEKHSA
Procedure: Briefly, the assay is a time resolved FRET assay that indirectly measures PIP3 product formed by the activity of a PI3-K. The kinase reaction is performed in a microtiter plate (e.g., a 384 well microtiter plate). The total reaction volume is approximately 20 ul per well. In the first step, each well receives 2 ul of test compound in 20% dimethylsulphoxide resulting in a 2% DMSO final concentration. […] The plate is sealed and incubated for 15 minutes at room temperature. […] The plate is sealed and incubated for 1 hour at room temperature. The reaction is stopped by adding 5 ul of Stop Solution per well and then 5 ul of Detection Mix is added per well. The plate is sealed, incubated for 1 hour at room temperature, and then read on an appropriate plate reader. Data is analyzed and IC50s are generated using GraphPad Prism 5.

[4] = target: T4, PI3K δ (Homo sapiens, UniProt O00329); test: PI 3-Kinase (human) HTRF assay, PI3K δ; conditions: read-out: PI3K δ IC50
T4 construct: purchased Upstate / Millipore Corporation
T4 sequence (O00329 whole entry): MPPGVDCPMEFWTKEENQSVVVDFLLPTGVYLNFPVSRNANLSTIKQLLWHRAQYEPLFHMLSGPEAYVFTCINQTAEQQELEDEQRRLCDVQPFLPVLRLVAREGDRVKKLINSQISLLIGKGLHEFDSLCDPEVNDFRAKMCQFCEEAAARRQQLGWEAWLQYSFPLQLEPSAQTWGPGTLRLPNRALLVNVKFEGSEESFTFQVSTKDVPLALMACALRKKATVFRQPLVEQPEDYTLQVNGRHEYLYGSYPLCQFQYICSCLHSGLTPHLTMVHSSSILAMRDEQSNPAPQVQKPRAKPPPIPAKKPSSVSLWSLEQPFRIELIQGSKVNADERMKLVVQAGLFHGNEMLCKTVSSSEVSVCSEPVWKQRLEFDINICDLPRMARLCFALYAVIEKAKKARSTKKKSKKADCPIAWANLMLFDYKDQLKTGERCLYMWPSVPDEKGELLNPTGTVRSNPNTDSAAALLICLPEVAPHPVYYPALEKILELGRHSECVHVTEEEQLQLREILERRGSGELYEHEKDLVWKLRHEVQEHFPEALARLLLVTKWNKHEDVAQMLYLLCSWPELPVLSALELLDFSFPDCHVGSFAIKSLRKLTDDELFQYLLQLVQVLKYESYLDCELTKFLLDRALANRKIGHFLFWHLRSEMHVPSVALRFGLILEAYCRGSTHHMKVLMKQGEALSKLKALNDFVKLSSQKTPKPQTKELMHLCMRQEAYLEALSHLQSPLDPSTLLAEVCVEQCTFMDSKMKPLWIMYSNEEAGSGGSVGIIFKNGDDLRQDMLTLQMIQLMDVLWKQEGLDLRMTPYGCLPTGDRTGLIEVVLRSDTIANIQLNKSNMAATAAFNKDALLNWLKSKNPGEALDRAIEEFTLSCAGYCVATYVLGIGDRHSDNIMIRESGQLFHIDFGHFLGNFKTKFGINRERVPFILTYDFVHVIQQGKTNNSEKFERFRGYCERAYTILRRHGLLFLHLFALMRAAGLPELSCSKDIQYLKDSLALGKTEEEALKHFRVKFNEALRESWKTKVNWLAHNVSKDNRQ
T4 sequence (P27986 whole entry partner): as the sequence (P27986 whole entry partner) above

T1 sequence (P42338 whole entry): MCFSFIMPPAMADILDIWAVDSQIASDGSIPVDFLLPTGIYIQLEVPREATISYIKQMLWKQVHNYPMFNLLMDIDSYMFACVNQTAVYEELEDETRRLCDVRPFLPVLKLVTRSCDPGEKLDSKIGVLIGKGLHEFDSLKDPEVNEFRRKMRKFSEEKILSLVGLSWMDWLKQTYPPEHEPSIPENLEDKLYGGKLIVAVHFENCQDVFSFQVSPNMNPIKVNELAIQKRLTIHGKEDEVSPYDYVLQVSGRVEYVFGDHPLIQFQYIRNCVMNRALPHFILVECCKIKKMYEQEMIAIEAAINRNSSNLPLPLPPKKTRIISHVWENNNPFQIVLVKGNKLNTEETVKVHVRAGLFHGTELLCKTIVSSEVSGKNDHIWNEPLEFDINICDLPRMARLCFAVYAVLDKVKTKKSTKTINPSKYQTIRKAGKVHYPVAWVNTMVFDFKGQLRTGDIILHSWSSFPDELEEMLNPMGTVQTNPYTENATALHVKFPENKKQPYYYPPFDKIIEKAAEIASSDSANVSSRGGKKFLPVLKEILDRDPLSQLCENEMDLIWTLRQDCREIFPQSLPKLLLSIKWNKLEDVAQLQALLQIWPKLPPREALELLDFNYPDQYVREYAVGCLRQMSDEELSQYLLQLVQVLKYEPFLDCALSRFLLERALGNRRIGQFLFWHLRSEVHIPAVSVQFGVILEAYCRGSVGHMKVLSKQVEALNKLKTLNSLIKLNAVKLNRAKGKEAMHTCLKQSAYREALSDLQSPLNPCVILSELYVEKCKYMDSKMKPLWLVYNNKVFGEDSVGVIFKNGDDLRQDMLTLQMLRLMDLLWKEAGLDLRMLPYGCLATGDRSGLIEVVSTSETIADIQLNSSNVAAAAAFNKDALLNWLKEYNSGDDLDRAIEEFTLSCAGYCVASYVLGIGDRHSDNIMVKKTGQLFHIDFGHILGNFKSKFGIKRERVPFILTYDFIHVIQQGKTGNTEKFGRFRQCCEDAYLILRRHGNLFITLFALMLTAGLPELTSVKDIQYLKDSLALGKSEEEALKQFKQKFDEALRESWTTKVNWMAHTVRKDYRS
T1 sequence (P27986 whole entry partner): as the sequence (P27986 whole entry partner) above

Structure (SMILES) | IC50 [1] [µM] | IC50 [2] [µM] | IC50 [3] [µM] | IC50 [4] [µM]
CN1CCN(S(=O)(=O)c2cnc3ccc(-c4ccc5oc(N)nc5c4)cn23)CC1 [Compound 110] | > 10 | > 10 | > 10 | > 10
Nc1nc2cc(-c3ccc4ncc(C(=O)N5CCNCC5)n4c3)ccc2o1 [Compound 111] | < 10 | < 0.1 | > 10 | > 10
CS(=O)(=O)N1CCN(C(=O)c2cnc3ccc(-c4ccc5oc(N)nc5c4)cn23)CC1 [Compound 112] | > 10 | < 0.1 | < 1 | < 10
CC(=O)N1CCN(C(=O)c2cnc3ccc(-c4ccc5oc(N)nc5c4)cn23)CC1 [Compound 113] | > 10 | < 0.1 | < 1 | > 10
Nc1nc2ccc(-c3ccc4ncc(N5CCOCC5)nc4c3)cc2s1 [Compound 114] | > 10 | < 0.1 | < 1 | > 10
CN1CCN(c2cnc3ccc(-c4ccc5nc(N)sc5c4)cc3n2)CC1 [Compound 115] | < 0.1 | < 0.1 | < 10 | > 10
Nc1nc2cc(-c3ccc4ncc(N5CCOCC5)nc4c3)ccc2s1 [Compound 116] | < 1 | < 0.1 | < 1 | > 10
Nc1nc2ccc(-c3ccc4ncc(N5CCOCC5)nc4c3)cc2o1 [Compound 117] | < 1 | < 0.1 | < 1 | > 10
CNC(=O)CN1CCN(c2cnc3ccc(-c4ccc5oc(N)nc5c4)cc3n2)CC1 [Compound 120] | < 1 | < 0.1 | > 10 | < 10
Nc1nc2cc(-c3cn4c(C(=O)N5CCOCC5)cnc4cn3)ccc2o1 [Compound 122] | > 10 | > 10 | > 10 | > 10
CN1CCN(C(=O)c2cnc3cnc(-c4ccc5oc(N)nc5c4)cn23)CC1 [Compound 123] | > 10 | < 10 | > 10 | > 10
Nc1nc2ccc(-c3ccc4ncc(C(=O)N5CCOCC5)n4c3)cc2o1 [Compound 124] | < 1 | < 1 | < 1 | > 10
Nc1nc2ccc(-c3ccc4ncc(C(=O)N5CCOCC5)n4c3)cc2s1 [Compound 125] | > 10 | < 1 | < 1 | < 10
Nc1nc2cc(-c3ccc4ncc(C(=O)N5CCOCC5)n4c3)ccc2s1 [Compound 126] | < 10 | < 1 | < 1 | > 10
CN1CCN(c2cnc3ccc(-c4ccc5sc(N)nc5c4)cc3n2)CC1 [Compound 127] | < 0.1 | < 1 | < 10 | > 10
C[C@@H]1CN(c2cnc3ccc(-c4ccc5oc(N)nc5c4)cc3n2)C[C@H](C)O1 [Compound 132] | > 10 | < 1 | < 10 | > 10
CN1CCCN(c2cnc3ccc(-c4ccc5oc(N)nc5c4)cc3n2)CC1 [Compound 136] | < 1 | < 1 | < 10 | > 10
CN1CCCN(C(=O)c2cnc3ccc(-c4ccc5oc(N)nc5c4)cn23)CC1 [Compound 140] | < 10 | < 1 | > 10 | > 10
CCN1CCN(C(=O)c2cnc3ccc(-c4ccc5oc(N)nc5c4)cn23)CC1 [Compound 141] | > 10 | < 1 | < 10 | > 10
CC1CN(C(=O)c2cnc3ccc(-c4ccc5oc(N)nc5c4)cn23)CC(C)N1 (stereo not shown) [Compound 142] | > 10 | < 10 | > 10 | > 10
CN1CCN(C(=O)c2cnc3ccc(-c4ccc5nc(N)sc5c4)cn23)CC1 [Compound 146] | < 10 | < 10 | > 10 | > 10
CC(=O)NC1CCN(C(=O)c2cnc3ccc(-c4ccc5oc(N)nc5c4)cn23)CC1 [Compound 147] | < 10 | < 1 | < 10 | < 10
Nc1nc2cc(-c3ccc4ncc(C(=O)N5CCN(CCO)CC5)n4c3)ccc2o1 [Compound 148] | > 10 | < 0.1 | < 10 | > 10
Nc1nc2cc(-c3ccc4ncc(-c5ccnc(N6CCOCC6)c5)nc4c3)ccc2o1 [Compound 150] | > 10 | < 1 | > 10 | > 10
CCN1CCN(c2cnc3ccc(-c4ccc5oc(N)nc5c4)cc3n2)CC1 [Compound 152] | < 0.1 | < 0.1 | < 1 | < 10
